Data on twelve molecules can be found in ChEMBL document CHEMBL1201862, “PubChem BioAssay data set” (2004).

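These data come from cells grown in 96-well plates and exposed to compound for 48 hours at five concentrations. Abbreviation: GI50, concentration required for 50% inhibition of growth.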 Active and inactive are the calls of the source. Cut-off read from the data, not from the text of the source: active = GI50 up to about 1.1 µM and inactive = higher.

What all share (assay): NCI-60 cell line screen, 48 h
Assay [1] has as its system M14.
In assay [2] the test system is SF-268.
The test system of assay [3] is EKVX.
The subject of assay [4] is Malme-3M.
For assay [5], the system named is NCI/ADR-RES.
Assay [6] deals with HCT-116.
For assay [7], the system named is MOLT-4.
For assay [8], the system named is NCI-H226.
Assay [9] concerns SR.
The test system of assay [10] is SK-MEL-5.
In assay [11] the test system is UACC-62.
Assay [12] deals with SNB-75.
Assay [13] has as its system U-251.
The test system of assay [14] is NCI-H23.
Assay [15] concerns HCT-15.
In assay [16] the test system is SK-MEL-28.
For assay [17], the system named is T47D.
The subject of assay [18] is SF-539.
Assay [19] deals with BT-549.

Turning to `COc1cc2oc(=O)cc(C)c2c(OC)c1OC`, the GI50 in [1] was > 100 µM (inactive); in [2], > 100 µM (inactive); in assay [3], 87.9 µM (inactive); in assay [4] it was > 100 µM (inactive); in assay [5] it was > 100 µM (inactive); in [6], > 100 µM (inactive). In addition, the GI50 was > 100 µM (inactive) in assay [7]; > 100 µM (inactive) in assay [8]; > 100 µM (inactive) in assay [9]; > 100 µM (inactive) in [10]; > 100 µM (inactive) in [11]; 67.6 µM (inactive) in [12]. For the same molecule, the GI50 was > 100 µM (inactive) in assay [13], > 100 µM (inactive) in assay [14], > 100 µM in assay [15] and > 100 µM (inactive) in assay [16].

`COC(=O)C1C(=O)N(C)C(=O)N2CCCC12` (stereo not given): the GI50 in assay [1], in assay [2], in assay [3], in [17], in assay [4] and in [5] was > 100 µM (inactive) in each case. Further, the GI50 in [7], in assay [8], in assay [10], in assay [11], in assay [12] and in [13] was > 100 µM (inactive) throughout. In addition, the GI50 was > 100 µM (inactive) in [14], > 100 µM (inactive) in [18], > 100 µM in assay [15] and 1.4 µM (inactive) in assay [16].

Take `CCCCCCCCCCCCCCCCCCNc1ccn(C2OC(COP(=O)(O)OCCCCCCCCCCCCCCCC)C(O)C2O)c(=O)n1` (stereo not given): the GI50 in [1], in assay [2], in assay [3], in assay [17], in [5] and in assay [6] was > 100 µM (inactive) in each case. Besides, the GI50 in [7] is > 100 µM (inactive); in assay [8], > 100 µM (inactive); in assay [9], > 100 µM (inactive); in assay [11] it was > 100 µM (inactive); in [12] it was 74.1 µM (inactive); in assay [13] it was > 100 µM (inactive). Moreover, the GI50 in assay [14] is > 100 µM (inactive); in [18] it was > 100 µM (inactive); in [15], > 100 µM; in [16], > 100 µM (inactive).

For `CC(=O)/C=C1/C(=O)C(CC(C)C)=C1CC(C)C`, the GI50 in assay [1], in assay [2], in [3], in assay [17], in [4] and in [5] was > 100 µM (inactive) each time. The GI50 in assay [6] was > 100 µM (inactive); in [7], 92.3 µM (inactive); in assay [8], > 100 µM (inactive); in [10] it was > 100 µM (inactive); in assay [11], > 100 µM (inactive); in [12], > 100 µM (inactive). For the same molecule, the GI50 in [13] is > 100 µM (inactive); in [14] it was > 100 µM (inactive); in assay [18], > 100 µM (inactive); in assay [15], > 100 µM; in assay [16] it was > 100 µM (inactive).

On to `CCN1CC2=C(NC(=S)NC2c2cc(OC)c(OC)c(OC)c2)/C(=C/c2cc(OC)c(OC)c(OC)c2)C1` (stereo not given), for which the GI50 in [1] is 16.6 µM (inactive); in assay [2], 6.31 µM (inactive); in assay [3] it was 15 µM (inactive); in assay [4], 0.871 µM (active); in [5] it was 30.9 µM (inactive); in assay [6], 27.7 µM (inactive). Further, the GI50 in assay [7] is 20.9 µM (inactive); in assay [19] it was 46.5 µM (inactive); in assay [8], 27.5 µM (inactive); in assay [10] it was 13.2 µM (inactive); in [11] it was 31.8 µM (inactive); in assay [12], 2.74 µM (inactive). In addition, the GI50 in assay [13] was 45.1 µM (inactive); in assay [14] it was 38.2 µM (inactive); in assay [15], 32 µM; in [16] it was 13.7 µM (inactive).

For the molecule `Cc1cn(CC2=NCC(O)CN2)c(=O)[nH]c1=O` (stereo not given), the GI50 in assay [1], in [2], in assay [3], in assay [17], in [4] and in assay [5] was > 100 µM (inactive) throughout. Further, the GI50 in assay [6], in assay [7], in [8], in assay [10], in assay [11] and in assay [13] was > 100 µM (inactive) in each case. The GI50 in assay [14] is > 100 µM (inactive); in assay [18] it was > 100 µM (inactive); in assay [15], > 100 µM; in assay [16], > 100 µM (inactive).

For the molecule `CC(=O)Oc1ccc(N2C(=O)C3c4[nH]c5ccccc5c4C4CCC(C(C)(C)C)CC4C3C2=O)cc1` (stereo not given), the GI50 in [1] was 4.01 µM (inactive); in assay [2], 3.34 µM (inactive); in assay [3] it was 3.07 µM (inactive); in assay [4] it was 6.56 µM (inactive); in [5] it was 3.56 µM (inactive); in [6], 2.15 µM (inactive). Besides, the GI50 is 10 µM (inactive) in assay [7]; 4.02 µM (inactive) in assay [19]; 12.7 µM (inactive) in assay [8]; 2.84 µM (inactive) in assay [10]; 6.08 µM (inactive) in [11]; 3.27 µM (inactive) in assay [13]. Further, the GI50 is 3.56 µM (inactive) in [14], 5.01 µM (inactive) in assay [18], 4.07 µM in assay [15] and 3.76 µM (inactive) in [16].

`N#Cc1nc(C2=C(Cl)c3ccccc3OC2)[nH]c1C#N`: the GI50 is 19.4 µM (inactive) in assay [1]; 32.6 µM (inactive) in assay [2]; 31.5 µM (inactive) in [3]; 41.1 µM (inactive) in [5]; 12.9 µM (inactive) in assay [7]; 18.9 µM (inactive) in assay [19]. Further, the GI50 in assay [10] was 19.1 µM (inactive); in assay [11], 22.9 µM (inactive); in assay [13] it was 18.4 µM (inactive); in assay [14], 25.1 µM (inactive); in assay [18] it was 17.1 µM (inactive); in [15], 34.8 µM. In [16], the GI50 is 23.2 µM (inactive).

For `O=C(Nc1nc(C23CC4CC(CC(C4)C2)C3)cs1)c1cc2ccccc2oc1=O`, the GI50 in assay [2], in [3], in assay [4], in assay [5], in assay [6] and in [7] was > 100 µM (inactive) throughout. Further, the GI50 in assay [19], in assay [8], in [9], in assay [10], in [12] and in assay [13] was > 100 µM (inactive) in each case. The GI50 in [14] is > 100 µM (inactive); in [18] it was > 100 µM (inactive); in [15] it was > 100 µM; in assay [16], > 100 µM (inactive).

Take `CC(C)Oc1c(O)c2c3c(oc(=O)n3C=CC2c2ccccc2)c1OC(C)C` (stereo not given): the GI50 in [1] was 20 µM (inactive); in assay [3], 22.3 µM (inactive); in assay [17], 25.9 µM (inactive); in assay [5] it was 27.5 µM (inactive); in [6], 28.8 µM (inactive); in assay [7] it was 31 µM (inactive). Further, the GI50 in [8] is 27.6 µM (inactive); in assay [10], 32.3 µM (inactive); in assay [12], 21.9 µM (inactive); in assay [13], 20.8 µM (inactive); in assay [14], 20.2 µM (inactive); in [18], 19.7 µM (inactive). Also, the GI50 in assay [15] was 12.8 µM; in assay [16] it was 22.5 µM (inactive).

As for `CN(C)c1cccc2c1C(=O)C=CC21c2ccc(N(C)C)c3c(N(C)C)ccc(c23)C(c2ccccc2)C1c1ccccc1` (stereo not given), the GI50 is 16.7 µM (inactive) in assay [1]; 12.9 µM (inactive) in [2]; 22.2 µM (inactive) in assay [3]; 18 µM (inactive) in assay [4]; 22.6 µM (inactive) in assay [5]; 21.3 µM (inactive) in [6]. The GI50 is 0.592 µM (active) in assay [7]; 12.7 µM (inactive) in [8]; 7.82 µM (inactive) in assay [9]; 14.2 µM (inactive) in [10]; 20.1 µM (inactive) in assay [11]; 8.26 µM (inactive) in [12]. For the same molecule, the GI50 in [13] was 10.5 µM (inactive); in [14], 24.7 µM (inactive); in assay [18], 12.1 µM (inactive); in assay [15], 27.3 µM; in assay [16], 17.5 µM (inactive).

Turning to `O=C(Nc1ccc(S(=O)(=O)/N=c2\ncccn2C(=O)C(C(F)(F)F)C(F)(F)F)cc1)C(C(F)(F)F)C(F)(F)F`, the GI50 in assay [1] was > 100 µM (inactive); in assay [2], > 100 µM (inactive); in [3], > 100 µM (inactive); in [17], > 100 µM (inactive); in [4], 49.2 µM (inactive); in [5] it was > 100 µM (inactive). For the same molecule, the GI50 was > 100 µM (inactive) in [6]; > 100 µM (inactive) in assay [7]; > 100 µM (inactive) in [8]; > 100 µM (inactive) in assay [10]; > 100 µM (inactive) in assay [11]; 80.7 µM (inactive) in assay [12]. For the same molecule, the GI50 is > 100 µM (inactive) in assay [13]; > 100 µM (inactive) in assay [14]; > 100 µM (inactive) in assay [18]; > 100 µM in [15]; > 100 µM (inactive) in assay [16].
